Source: patent publication US20220041691A1, “METHODS FOR DIAGNOSING OR TREATING POST-TRAUMATIC STRESS DISORDER, AND COMPOSITIONS THEREFOR” (Centre for Addiction and Mental Health, priority 2018, published 2022)
Entries after “also recorded” stand apart in the source; their conditions may differ.

Experiments:
[1] = target: T1, GR-FKBP51 complex (Mus musculus, UniProt Q64378); assay: Co-immunoprecipitation of GR-FKBP51 complex in acute mouse brain slices treated with peptide; type: cell-based; conditions: versus control TAT peptide
T1 construct: from tissue; host or cells: C57Bl/6 mouse brain (acute slices; whole-brain lysate) and blood lymphocytes
T1 sequence (Q64378 1-456): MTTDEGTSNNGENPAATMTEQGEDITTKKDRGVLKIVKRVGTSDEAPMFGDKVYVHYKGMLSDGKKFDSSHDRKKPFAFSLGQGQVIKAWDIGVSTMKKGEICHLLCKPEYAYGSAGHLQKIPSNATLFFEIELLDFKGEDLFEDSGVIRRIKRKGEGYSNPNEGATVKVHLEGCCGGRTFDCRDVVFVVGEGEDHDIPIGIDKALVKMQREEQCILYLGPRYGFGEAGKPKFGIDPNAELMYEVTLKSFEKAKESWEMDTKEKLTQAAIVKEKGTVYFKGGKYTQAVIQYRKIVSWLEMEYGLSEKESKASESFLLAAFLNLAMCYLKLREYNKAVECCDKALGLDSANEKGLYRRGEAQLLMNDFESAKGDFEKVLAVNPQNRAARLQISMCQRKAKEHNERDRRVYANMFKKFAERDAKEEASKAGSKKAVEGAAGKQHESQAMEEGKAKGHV
Protocol: Thus, it is concluded that the GRNT-4-1 region is important for GR-FKBP51 complex formation, and that GRpep disrupted the GR-FKBP51 complex.
(§1) Co-immunoprecipitation and Western blot analyses were performed as previously described.^24, 25, 26 For co-immunoprecipitation, 500˜1000 μg solubilized protein was extracted from whole mouse brain and incubated with primary antibody or control IgG (2˜4 μg) for 4 hrs at 4° C., followed by the addition of 25 μl protein A/G plus agarose (Santa Cruz Biotechnology) for 12 hrs. Pellets were washed, boiled for 5 min in SDS sample buffer and subjected to SDS-PAGE. 50˜100 μg of total protein extract was used as control in each experiment. After transfer of proteins into nitrocellulose, membranes were Western blotted with the primary antibodies. The intensity of protein level was quantified by densitometry (software: ImageLab, Bio-Rad).
Acute brain slices (350 μm thick) were prepared from C57Bl/6 mice with a McIlwain tissue chopper (Mickle Laboratory Engineering, Gomshall, United Kingdom). After being dissected from the brain, mouse cerebral hemispheres were left for 5 min in ice-cold artificial cerebrospinal fluid (aCSF) containing 126 mM NaCl, 2.5 mM KCl, 1 mM MgCl2, 1 mM CaCl2, 1.25 mM KH2PO4, 26 mM NaHCO3 and 20 mM glucose, which was bubbled continuously with carbogen (95% O2/5% CO2). […]

[2] = tested on: nuclear GR; assay: Nuclear protein isolation, nuclear GR in brain of fear-conditioned mice; type: in vivo, mouse; conditions: 3 nmol/g i.p, vs TAT alone or saline, p<0.05, n=4
Protocol: (§2) Nuclear protein isolation assays were performed in acute mouse brain slices or mouse brain tissue using the Nuclear Protein Extraction Kit (Bio Basic Inc., Amherst, N.Y.). Briefly, after treatment with TAT or TAT-GRpep, mouse brain slices were harvested for nuclear protein extraction according to the manufacturer's instructions.

[3] = tested on: fear-conditioned mice; assay: Cued fear conditioning, systemic (i.p.) peptide delivery; type: in vivo, mouse
Protocol: Next, testing was performed to determine whether TAT-GRpep can block the emergence of PTSD-like fear-related behaviours when administrated systemically. Animals underwent five rounds of CS-US pairings followed by 5 days of extinction training before the expression of fear in response to the learned cue was assessed (FIG. 4A). Mice were injected with either TAT-GRpep or TAT intraperitoneally (3 nmol/g, i.p.) one hour before the test.
Furthermore, testing was performed to determine whether disrupting the GR-FKBP51 complex reduced consolidation of cued fear memory. Thus, TAT or TAT-GRpep was administered two hours after the end of fear conditioning training (FIG. 4C), before five consecutive daily extinction sessions of cue exposure without shock. […] This may therefore indicate a potential approach to both preventing and treating PTSD-like behaviour in the aftermath of trauma, for example.
Animals were first given a five-minute habituation to the apparatus (Habitest, Colbourne Instruments). Then, animals were exposed to 30 seconds of cue exposure (an in-house white light), which co-terminated with one second of foot-shock (0.5 mA). The cue exposure and foot-shock were repeated five times, intermitted by 5-minute inter-trial intervals. Following the conditioning, animals were subjected to 2-5 days of extinction before the assessment of their cued fear memory, which consisted of 15 rounds of 30-second cue exposure, with 30-second inter-trial intervals (adapted from Andero et al.).^48
The expression of fear (in a different context from training) was assessed 24 hours after the last extinction training. The assessment consisted of a three-minute period of habituation (absence of CS) and a sequent three-minute trial of conditioned cues. The duration of freezing behaviors was recorded by a blinded experimenter. Peptide treatment was either administered 2 hours after the conditioning or 30 minutes before the behavioral assessment.

[4] = tested on: GR and FKBP52 colocalization in primary neurons; assay: Immunocytochemistry of GR and FKBP52 in primary mouse neurons; type: cell-based
Protocol: Cortical tissues from embryonic day (E14) mouse brains were dissected out, incubated with 0.25% trypsin for 15 min at 37° C., and dissociated by mechanical trituration. Neurons were then plated at a desired density onto glass coverslips previously coated with 0.1 mg/ml poly-d-lysine, and grown in Neurobasal medium with 1× Glutamax, 1×B27, 100 U/ml penicillin and 100 μg/ml streptomycin in an incubator (37° C., 5% CO2). Either 10 μM of TAT-GRpep, 10 μM TAT-control peptide or saline were added in culture plates for 45 min in advance at 8 days in vitro (8 DIV).
Cultured neurons were fixed in 4% PFA/4% sucrose, permeabilized with 0.1M PBS containing 0.1% Triton X-100 for 10 min, and blocked for 1 hour with 1% bovine serum albumin in PBS at room temperature. They were incubated with primary antibodies overnight at 4° C. and secondary antibodies for 1 hour at room temperature. The following primary antibodies were used: anti-GR (1:200; Thermo), anti-FKBP51 (1:200; Abcam) and anti-FKBP52 (1:200; Abcam). […] DAPI was used to stain cell nuclei.

[5] = tested on: nuclear GR; assay: Nuclear protein isolation, nuclear GR in mouse brain slices; type: cell-based; conditions: 10 μM, 30 min, vs TAT or untreated controls, p<0.001, n=3
Protocol: To test this hypothesis, the effect of TAT-GRpep on GR-FKBP52 levels was examined using co-immunoprecipitation. […] Similar results were also obtained using confocal microscope in primary mouse neuron cultures.
Acute brain slices (350 μm thick) were prepared from C57Bl/6 mice with a McIlwain tissue chopper (Mickle Laboratory Engineering, Gomshall, United Kingdom). After being dissected from the brain, mouse cerebral hemispheres were left for 5 min in ice-cold artificial cerebrospinal fluid (aCSF) containing 126 mM NaCl, 2.5 mM KCl, 1 mM MgCl2, 1 mM CaCl2, 1.25 mM KH2PO4, 26 mM NaHCO3 and 20 mM glucose, which was bubbled continuously with carbogen (95% O2/5% CO2). Freshly cut slices were placed in an incubating chamber with carbogenated aCSF and recovered from stress at 37° C. for 1 hour. Slices were then treated with TAT or TAT-GRpep and harvested for Western blot analysis.
as §2

[6] = tested on: GR-FKBP52 complex; assay: Co-immunoprecipitation of GR-FKBP52 complex in brain of fear-conditioned mice; type: in vivo; conditions: fear-conditioned mouse brain, 3 nmol/g i.p; vs TAT alone or saline; p<0.05, n=3
Protocol: as §1

In the case of “GRKKRRQRRRPQSPWRSDLLIDENCLL (Amino Acid Sequence of TAT-GRpep Peptide)”, the “GR-FKBP51 complex level (co-immunoprecipitation)” value [1] is reported as “able to disrupt the GR-FKBP51 complex; also recorded: reduced GR-FKBP51 levels”, the “nuclear GR level / GR nuclear localization” value [2] is reported as “higher levels of nuclear GR; also recorded: increased” and the “duration of freezing with the CS” value ([3]; 3 nmol/g i.p. one hour before the test, after 5 days of extinction training, three-minute cue trial, p<0.05) is reported as 34.1 ± 6.7 s. The “freezing behavior during habituation period without CS” value ([3]; 3 nmol/g i.p. one hour before the test, TAT-GRpep vs control group, p=NS) was “no difference in freezing behavior”, the “cued freezing behaviours (FIG. 4D)” value ([3]; peptide administered after fear conditioning, before extinction sessions, p<0.05) was “reduced cued freezing behaviours” and the “duration of freezing with the CS (consolidation of cued fear memory)” value ([3]; peptide administered two hours after end of fear conditioning, tested 24 hours after last of five daily extinction sessions, p<0.05) was 55.9 ± 3.3 s. The “nuclear GR levels” value ([4]; primary mouse neuron cultures, confocal microscope) was “markedly increased nuclear GR levels”, the “nuclear GR-FKBP52 colocalization” value ([4]; primary neurons 8 DIV, 10 μM, 45 min) was “marked increase in nuclear GR-FKBP52 colocalization” and the “colocalization between GR and FKBP52” value ([4]; primary neurons 8 DIV, 10 μM, 45 min, vs saline and control peptide) was “significantly more colocalization between GR and FKBP52; also recorded: co-localized more”. The “nuclear GR level / proportion of GR in the nucleus” value [5] was “higher levels of nuclear GR; also recorded: significantly increased” and the “GR-FKBP52 complex (FKBP52 co-immunoprecipitated by GR antibody)” value [6] was “more FKBP52 was co-immunoprecipitated by GR antibody; also recorded: significant increases in GR-FKBP52 complex levels”.
